Legend:
Format in all cases: functional
NCI-H460 = assay: Growth inhibition of human NCI-H460 cells assessed as cell growth at 10^-6 M after 48 hrs by sulforhodamine B assay; conditions: NCI-H460, 48 h, read-out: Activity
T47D [1] = assay: Growth inhibition of human T47D cells assessed as cell growth at 10^-4 M after 48 hrs by sulforhodamine B assay; conditions: read-out: Activity
OVCAR-8 [2] = assay: Growth inhibition of human OVCAR8 cells assessed as cell growth at 10^-8 M after 48 hrs by sulforhodamine B assay; conditions: OVCAR-8, 48 h, read-out: Activity
HOP-62 [3] = assay: Growth inhibition of human HOP62 cells assessed as cell growth at 10^-5 M after 48 hrs by sulforhodamine B assay; conditions: HOP-62, 48 h, read-out: Activity
DU-145 [4] = assay: Growth inhibition of human DU145 cells assessed as cell growth at 10^-7 M after 48 hrs by sulforhodamine B assay; conditions: DU-145, 48 h, read-out: Activity
T47D [5] = assay: Growth inhibition of human T47D cells assessed as cell growth at 10^-6 M after 48 hrs by sulforhodamine B assay; conditions: read-out: Activity
786-0 [6] = assay: Growth inhibition of human 786-0 cells assessed as cell growth at 10^-5 M after 48 hrs by sulforhodamine B assay; conditions: 786-0, 48 h, read-out: Activity
COLO 205 = assay: Growth inhibition of human COLO205 cells assessed as cell growth at 10^-5 M after 48 hrs by sulforhodamine B assay; conditions: COLO 205, 48 h, read-out: Activity
SK-OV-3 = assay: Growth inhibition of human SKOV3 cells assessed as cell growth at 10^-4 M after 48 hrs by sulforhodamine B assay; conditions: SK-OV-3, 48 h, read-out: Activity
CCRF-CEM = assay: Growth inhibition of human CCRF-CEM cells assessed as cell growth at 10^-4 M after 48 hrs by sulforhodamine B assay; conditions: read-out: Activity
CAKI-1 = assay: Growth inhibition of human CAKI-1 cells assessed as cell growth at 10^-8 M after 48 hrs by sulforhodamine B assay; conditions: CAKI-1, 48 h, read-out: Activity
MCF7 [7] = assay: Growth inhibition of human MCF7 cells assessed as cell growth at 10^-7 M after 48 hrs by sulforhodamine B assay; conditions: MCF7, 48 h, read-out: Activity
786-0 [8] = assay: Growth inhibition of human 786-0 cells assessed as cell growth at 10^-7 M after 48 hrs by sulforhodamine B assay; conditions: 786-0, 48 h, read-out: Activity
NCI-H322M = assay: Growth inhibition of human NCI-H322M cells assessed as cell growth at 10^-8 M after 48 hrs by sulforhodamine B assay; conditions: read-out: Activity
MDA-MB-231 = assay: Growth inhibition of human MDA-MB-231 cells assessed as cell growth at 10^-5 M after 48 hrs by sulforhodamine B assay; conditions: MDA-MB-231, 48 h, read-out: Activity
HL-60(TB) [9] = assay: Growth inhibition of human HL-60(TB) cells assessed as cell growth at 10^-6 M after 48 hrs by sulforhodamine B assay; conditions: HL-60, 48 h, read-out: Activity
UO-31 = assay: Growth inhibition of human UO31 cells assessed as cell growth at 10^-5 M after 48 hrs by sulforhodamine B assay; conditions: UO-31, 48 h, read-out: Activity
HOP-62 [10] = assay: Growth inhibition of human HOP62 cells assessed as cell growth at 10^-4 M after 48 hrs by sulforhodamine B assay; conditions: HOP-62, 48 h, read-out: Activity
NCI-H226 = assay: Growth inhibition of human NCI-H226 cells assessed as cell growth at 10^-8 M after 48 hrs by sulforhodamine B assay; conditions: NCI-H226, 48 h, read-out: Activity
DU-145 [11] = assay: Growth inhibition of human DU145 cells assessed as cell growth at 10^-6 M after 48 hrs by sulforhodamine B assay; conditions: DU-145, 48 h, read-out: Activity
KM12 [12] = assay: Growth inhibition of human KM12 cells assessed as cell growth at 10^-5 M after 48 hrs by sulforhodamine B assay; conditions: KM12, 48 h, read-out: Activity
A498 = assay: Growth inhibition of human A498 cells assessed as cell growth at 10^-6 M after 48 hrs by sulforhodamine B assay; conditions: A498, 48 h, read-out: Activity
SNB-19 = assay: Growth inhibition of human SNB19 cells assessed as cell growth at 10^-4 M after 48 hrs by sulforhodamine B assay; conditions: SNB-19, 48 h, read-out: Activity
OVCAR-8 [13] = assay: Growth inhibition of human OVCAR8 cells assessed as cell growth at 10^-5 M after 48 hrs by sulforhodamine B assay; conditions: OVCAR-8, 48 h, read-out: Activity
OVCAR-5 [14] = assay: Growth inhibition of human OVCAR5 cells assessed as cell growth at 10^-6 M after 48 hrs by sulforhodamine B assay; conditions: OVCAR-5, 48 h, read-out: Activity
KM12 [15] = assay: Growth inhibition of human KM12 cells assessed as cell growth at 10^-6 M after 48 hrs by sulforhodamine B assay; conditions: KM12, 48 h, read-out: Activity
OVCAR-4 = assay: Growth inhibition of human OVCAR4 cells assessed as cell growth at 10^-6 M after 48 hrs by sulforhodamine B assay; conditions: OVCAR-4, 48 h, read-out: Activity
MCF7 [16] = assay: Growth inhibition of human MCF7 cells assessed as cell growth at 10^-8 M after 48 hrs by sulforhodamine B assay; conditions: MCF7, 48 h, read-out: Activity
KM12 [17] = assay: Growth inhibition of human KM12 cells assessed as cell growth at 10^-8 M after 48 hrs by sulforhodamine B assay; conditions: KM12, 48 h, read-out: Activity
SR = assay: Growth inhibition of human SR cells assessed as cell growth at 10^-4 M after 48 hrs by sulforhodamine B assay; conditions: read-out: Activity
U-251 = assay: Growth inhibition of human U251 cells assessed as cell growth at 10^-8 M after 48 hrs by sulforhodamine B assay; conditions: U-251, 48 h, read-out: Activity
OVCAR-5 [18] = assay: Growth inhibition of human OVCAR5 cells assessed as cell growth at 10^-7 M after 48 hrs by sulforhodamine B assay; conditions: OVCAR-5, 48 h, read-out: Activity
SF-295 = assay: Growth inhibition of human SF295 cells assessed as cell growth at 10^-8 M after 48 hrs by sulforhodamine B assay; conditions: SF-295, 48 h, read-out: Activity
SF-268 = assay: Growth inhibition of human SF268 cells assessed as cell growth at 10^-4 M after 48 hrs by sulforhodamine B assay; conditions: SF-268, 48 h, read-out: Activity
SN12C = assay: Growth inhibition of human SN12C cells assessed as cell growth at 10^-4 M after 48 hrs by sulforhodamine B assay; conditions: read-out: Activity
HL-60(TB) [19] = assay: Growth inhibition of human HL-60(TB) cells assessed as cell growth at 10^-5 M after 48 hrs by sulforhodamine B assay; conditions: HL-60, 48 h, read-out: Activity
ACHN = assay: Growth inhibition of human ACHN cells assessed as cell growth at 10^-4 M after 48 hrs by sulforhodamine B assay; conditions: read-out: Activity
MDA-MB-468 = assay: Growth inhibition of human MDA-MB-468 cells assessed as cell growth at 10^-6 M after 48 hrs by sulforhodamine B assay; conditions: MDA-MB-468, 48 h, read-out: Activity

Row | SMILES | growth at 1 µM (NCI-H460) [%] | growth at 100 µM (T47D [1]) [%] | growth at 0.01 µM (OVCAR-8 [2]) [%] | growth at 10 µM (HOP-62 [3]) [%] | growth at 0.1 µM (DU-145 [4]) [%] | growth at 1 µM (T47D [5]) [%] | growth at 10 µM (786-0 [6]) [%] | growth at 10 µM (COLO 205) [%] | growth at 100 µM (SK-OV-3) [%] | growth at 100 µM (CCRF-CEM) [%] | growth at 0.01 µM (CAKI-1) [%] | growth at 0.1 µM (MCF7 [7]) [%] | growth at 0.1 µM (786-0 [8]) [%] | growth at 0.01 µM (NCI-H322M) [%] | growth at 10 µM (MDA-MB-231) [%] | growth at 1 µM (HL-60(TB) [9]) [%] | growth at 10 µM (UO-31) [%] | growth at 100 µM (HOP-62 [10]) [%] | growth at 0.01 µM (NCI-H226) [%] | growth at 1 µM (DU-145 [11]) [%] | further results
1 | COc1cc(-c2nn(-c3cccc(NC(=O)c4ccccc4)c3)cc2-c2ccncc2)ccc1Cl | 17 | 30 | 98 | 48 | 100 | 58 | 24 | -31 | 19 | 16 | 94 | 87 | 92 | 98 | 7 | 27 | 18 | 31 | 97 | 44 | growth at 10 µM (KM12 [12]): 10%; growth at 1 µM (A498): 19%; growth at 100 µM (SNB-19): 13%; growth at 10 µM (OVCAR-8 [13]): 58%; growth at 1 µM (OVCAR-5 [14]): 87%; growth at 1 µM (KM12 [15]): 36%; growth at 1 µM (OVCAR-4): 51%; growth at 0.01 µM (MCF7 [16]): 92%; growth at 0.01 µM (KM12 [17]): 101%; growth at 100 µM (SR): 12%; growth at 0.01 µM (U-251): 96%; growth at 0.1 µM (OVCAR-5 [18]): 93%; growth at 0.01 µM (SF-295): 93%; growth at 100 µM (SF-268): 14%; growth at 100 µM (SN12C): 36%; growth at 10 µM (HL-60(TB) [19]): 13%; growth at 100 µM (ACHN): 27%; growth at 1 µM (MDA-MB-468): 17%
2 | COc1cc(-c2nn(-c3cccc(NC(=O)c4ccc(N5CCOCC5)c(C(F)(F)F)c4)c3)cc2-c2ccncc2)ccc1Cl | 16 | 13 | 98 | 31 | 98 | 42 | -14 | -84 | -28 | 8 | 94 | 76 | 100 | 103 | -30 | 24 | -5 | 9 | 102 | 16 | growth at 10 µM (KM12 [12]): -6%; growth at 1 µM (A498): 1%; growth at 100 µM (SNB-19): 15%; growth at 10 µM (OVCAR-8 [13]): 3%; growth at 1 µM (OVCAR-5 [14]): 57%; growth at 1 µM (KM12 [15]): 28%; growth at 1 µM (OVCAR-4): 49%; growth at 0.01 µM (MCF7 [16]): 87%; growth at 0.01 µM (KM12 [17]): 108%; growth at 100 µM (SR): 6%; growth at 0.01 µM (U-251): 101%; growth at 0.1 µM (OVCAR-5 [18]): 93%; growth at 0.01 µM (SF-295): 89%; growth at 100 µM (SF-268): 10%; growth at 100 µM (SN12C): 11%; growth at 10 µM (HL-60(TB) [19]): 2%; growth at 100 µM (ACHN): 2%; growth at 1 µM (MDA-MB-468): -9%
